Laboratory results reported in PubChem BioAssay (NCI).
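Briefly, cells in 96-well plates were exposed to five compound concentrations for 48 h, and endpoints were estimated by linear interpolation. TGI denotes the concentration required for complete inhibition of growth.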

Each molecule was assayed on SK-MEL-5 melanoma (assay: DTP human tumour cell line panel, 48 h).

| SMILES | TGI [µM] |
| --- | --- |
| O=c1c2ccccc2nc(Cc2nc(-c3ccc(Cl)cc3)cs2)n1-c1ccc(Cl)cc1 | > 100 |
| CCN(CC)CCSc1c2cc(OC)ccc2nc2ccc(OC)cc12 | 27.7 |
| CCOC(=O)c1ccc(NCc2ccc3oc(=O)c(-c4ccccc4)nc3c2)cc1 | 45.2 |
| CCOC(=O)C1C(=O)CC1(C)C (stereo not drawn) | > 10 |

Each molecule was assayed on SNB-19 CNS (assay: DTP human tumour cell line panel, 48 h).

| SMILES | TGI [µM] |
| --- | --- |
| C(/C=C/Nc1ccc(Oc2ccccc2)cc1)=Nc1ccc(Oc2ccccc2)cc1 | 31.3 |
| Nc1nc(-[n+]2ccc(-c3ccncc3)cc2)nc(Cl)c1Cl | > 100 |
| C[C@@H](c1ccccc1)n1c(N)c(C#N)c2ccc([N+](=O)[O-])cc2c1=O | 29.1 |
| CC1(C)OC(=O)N(c2ccccc2)C12C=Cc1cc([N+](=O)[O-])ccc1O2 (stereo not drawn) | > 100 |
| O=C1CC(c2cccc([N+](=O)[O-])c2)C2(C(=O)NC(=O)NC2=O)C(c2cccc([N+](=O)[O-])c2)C1 (stereo not drawn) | > 100 |
| Nc1nc(-c2ccccc2)cc(-c2ccc(OCc3ccccc3)cc2O)n1 | > 100 |
| CCCc1c(O)nc(Nc2nc3ccccc3[nH]2)[nH]c1=O | > 100 |
| COC1=C(OC)C(=O)C(Cc2c(C)nc3sccn23)=C(C)C1=O | 33.3 |
| CCOC(=O)Cc1nc2cc(F)c(F)cc2[nH]c1=O | > 100 |
| CCOc1ncn(-c2ccc(NC(=S)NC3OC(CO)C(O)C(O)C3O)cc2)n1 (stereo not drawn) | > 100 |
| Cn1c([C@H](C#N)c2ncccc2[N+](=O)[O-])nc2ccccc21 | > 100 |
| COCc1nc2c(OC)c(-c3nc4nc(N5CCN(C)CC5)ccc4[nH]3)cc(OC)c2n1C | > 100 |
| O=C(c1ccco1)N(C(=S)OCCOc1ccccc1)c1ccccc1 | 59.7 |
| N#C[C@@H](c1ccccn1)c1ncccc1[N+](=O)[O-] | > 100 |
| COC(=O)C1=CS/C(=C2\S[C@@H]3[C@H](S2)[C@H]2C=C[C@@H]3C2)S1 | > 100 |
| CC(=O)Oc1ccc2cc(-c3ccccc3OC(C)=O)c(=O)oc2c1 | > 100 |
| CC(CC[C@@]1(C)C(=O)CCC2O[C@]21C)[C@H]1C[C@@H](c2ccoc2)OC1=O (stereo partly drawn) | > 100 |
| CN(C(=O)Cc1cccc(N=C=S)c1)[C@H]1CCCC[C@@H]1N1CCCC1 | 47.6 |
| O=C(NC(Cc1ccccc1)(Cc1ccc(O)cn1)C(=O)O)c1ccccc1 (stereo not drawn) | > 100 |
| O=C1c2ccsc2C(=O)c2sc(CO)cc21 | 0.218 |
| N#C/C(=C/NC(N)=S)C(N)=O | > 100 |
| O=C(c1cccs1)N1CCc2ccccc2C1 | > 100 |
| O=c1c2ccccc2nc(Cc2nc(-c3ccc(Cl)cc3)cs2)n1-c1ccc(Cl)cc1 | > 100 |
| CCN(CC)CCSc1c2cc(OC)ccc2nc2ccc(OC)cc12 | > 65.7 |
| CCOC(=O)c1ccc(NCc2ccc3oc(=O)c(-c4ccccc4)nc3c2)cc1 | > 100 |
| CCOC(=O)C1C(=O)CC1(C)C (stereo not drawn) | > 10 |

Each molecule was assayed on T-47D breast (assay: DTP human tumour cell line panel, 48 h).

| SMILES | TGI [µM] |
| --- | --- |
| Nc1nc(-[n+]2ccc(-c3ccncc3)cc2)nc(Cl)c1Cl | 45.9 |
| C[C@@H](c1ccccc1)n1c(N)c(C#N)c2ccc([N+](=O)[O-])cc2c1=O | 51.1 |
| CC1(C)OC(=O)N(c2ccccc2)C12C=Cc1cc([N+](=O)[O-])ccc1O2 (stereo not drawn) | 86.9 |
| CCCc1c(O)nc(Nc2nc3ccccc3[nH]2)[nH]c1=O | > 100 |
| COC1=C(OC)C(=O)C(Cc2c(C)nc3sccn23)=C(C)C1=O | > 100 |
| CCOc1ncn(-c2ccc(NC(=S)NC3OC(CO)C(O)C(O)C3O)cc2)n1 (stereo not drawn) | > 100 |
| COCc1nc2c(OC)c(-c3nc4nc(N5CCN(C)CC5)ccc4[nH]3)cc(OC)c2n1C | > 100 |
| O=C(c1ccco1)N(C(=S)OCCOc1ccccc1)c1ccccc1 | 76.2 |
| N#C[C@@H](c1ccccn1)c1ncccc1[N+](=O)[O-] | > 100 |
| COC(=O)C1=CS/C(=C2\S[C@@H]3[C@H](S2)[C@H]2C=C[C@@H]3C2)S1 | > 100 |
| CC(=O)Oc1ccc2cc(-c3ccccc3OC(C)=O)c(=O)oc2c1 | 56.7 |
| CC(CC[C@@]1(C)C(=O)CCC2O[C@]21C)[C@H]1C[C@@H](c2ccoc2)OC1=O (stereo partly drawn) | > 100 |
| CN(C(=O)Cc1cccc(N=C=S)c1)[C@H]1CCCC[C@@H]1N1CCCC1 | 26.8 |
| N#C/C(=C/NC(N)=S)C(N)=O | > 100 |
| O=C(c1cccs1)N1CCc2ccccc2C1 | > 100 |
| CCOC(=O)c1ccc(NCc2ccc3oc(=O)c(-c4ccccc4)nc3c2)cc1 | 34.1 |
| CCOC(=O)C1C(=O)CC1(C)C (stereo not drawn) | > 10 |

The molecules below were run on TK-10 renal (assay: DTP human tumour cell line panel, 48 h).

| SMILES | TGI [µM] |
| --- | --- |
| C(/C=C/Nc1ccc(Oc2ccccc2)cc1)=Nc1ccc(Oc2ccccc2)cc1 | 34.7 |
| Nc1nc(-[n+]2ccc(-c3ccncc3)cc2)nc(Cl)c1Cl | 59 |
| C[C@@H](c1ccccc1)n1c(N)c(C#N)c2ccc([N+](=O)[O-])cc2c1=O | 24 |
| CC1(C)OC(=O)N(c2ccccc2)C12C=Cc1cc([N+](=O)[O-])ccc1O2 (stereo not drawn) | > 100 |
| Nc1nc(-c2ccccc2)cc(-c2ccc(OCc3ccccc3)cc2O)n1 | 91 |
| CCCc1c(O)nc(Nc2nc3ccccc3[nH]2)[nH]c1=O | > 100 |
| COC1=C(OC)C(=O)C(Cc2c(C)nc3sccn23)=C(C)C1=O | 32 |
| CCOC(=O)Cc1nc2cc(F)c(F)cc2[nH]c1=O | > 100 |
| CCOc1ncn(-c2ccc(NC(=S)NC3OC(CO)C(O)C(O)C3O)cc2)n1 (stereo not drawn) | > 100 |
| Cn1c([C@H](C#N)c2ncccc2[N+](=O)[O-])nc2ccccc21 | > 100 |
| O=C(c1ccco1)N(C(=S)OCCOc1ccccc1)c1ccccc1 | 55.2 |
